Assay results reported in ChEMBL document CHEMBL1201862, “PubChem BioAssay data set” (2004).
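In this assay, cells in 96-well plates receive the compound at five concentrations for 48 hours. Endpoints are linearly interpolated between the surrounding concentrations. Abbreviation: GI50, concentration required for 50% inhibition of growth.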 The source made the active and inactive calls. Rule as the data show it: active = GI50 up to about 1.1 µM and inactive = higher.

Columns and labels:
Assay in all cases: DTP human tumour cell line panel, 48 h
UO-31 = tested on: UO-31
MCF7 = tested on: MCF7
HCT-15 = tested on: HCT-15
UACC-62 = tested on: UACC-62
HT-29 = tested on: HT-29
OVCAR-8 = tested on: OVCAR-8
SK-MEL-5 = tested on: SK-MEL-5
HCT-116 = tested on: HCT-116
SF-539 = tested on: SF-539
SK-MEL-28 = tested on: SK-MEL-28
LOX IMVI = tested on: LOX IMVI
Hs-578T = tested on: Hs-578T
SNB-75 = tested on: SNB-75
OVCAR-4 = tested on: OVCAR-4
EKVX = tested on: EKVX
SNB-19 = tested on: SNB-19
SN12C = tested on: SN12C
HOP-62 = tested on: HOP-62
786-0 = tested on: 786-0
A549 = tested on: A549
NCI/ADR-RES = tested on: NCI/ADR-RES
K562 = tested on: K562
BT-549 = tested on: BT-549
DU-145 = tested on: DU-145
Malme-3M = tested on: Malme-3M
COLO 205 = tested on: COLO 205
SF-268 = tested on: SF-268
UACC-257 = tested on: UACC-257
OVCAR-3 = tested on: OVCAR-3
M14 = tested on: M14
IGROV-1 = tested on: IGROV-1
HCC 2998 = tested on: HCC 2998
ACHN = tested on: ACHN
SK-OV-3 = tested on: SK-OV-3
RXF 393 = tested on: RXF 393
PC-3 = tested on: PC-3
HL-60 = tested on: HL-60
T47D = tested on: T47D
NCI-H522 = tested on: NCI-H522
MDA-N = tested on: MDA-N
MDA-MB-231 = tested on: MDA-MB-231
SF-295 = tested on: SF-295
CCRF-CEM = tested on: CCRF-CEM
MOLT-4 = tested on: MOLT-4
SK-MEL-2 = tested on: SK-MEL-2
NCI-H23 = tested on: NCI-H23
KM12 = tested on: KM12
OVCAR-5 = tested on: OVCAR-5
NCI-H460 = tested on: NCI-H460
CAKI-1 = tested on: CAKI-1
TK-10 = tested on: TK-10
SR = tested on: SR
U-251 = tested on: U-251
HOP-92 = tested on: HOP-92
RPMI-8226 = tested on: RPMI-8226
SW-620 = tested on: SW-620
NCI-H226 = tested on: NCI-H226
MDA-MB-435 = tested on: MDA-MB-435
A498 = tested on: A498

CCN(CC)Cc1cc(Nc2ccnc3ccc4c(nnn4C)c23)ccc1O
GI50 (UO-31): 6.62 µM (inactive)
GI50 (MCF7): 4.03 µM (inactive)
GI50 (HCT-15): 3.67 µM
GI50 (UACC-62): 15 µM (inactive)
GI50 (HT-29): 5.56 µM (inactive)
GI50 (OVCAR-8): 16.1 µM (inactive)
GI50 (SK-MEL-5): 12.7 µM (inactive)
GI50 (HCT-116): 4.93 µM (inactive)
GI50 (SF-539): 5.33 µM (inactive)
GI50 (SK-MEL-28): 3.98 µM (inactive)
GI50 (LOX IMVI): 11.9 µM (inactive)
GI50 (Hs-578T): 15.5 µM (inactive)
GI50 (SNB-75): 5.89 µM (inactive)
GI50 (OVCAR-4): 7.6 µM (inactive)
GI50 (EKVX): 26.7 µM (inactive)
GI50 (SNB-19): 5.55 µM (inactive)
GI50 (SN12C): 6.1 µM (inactive)
GI50 (HOP-62): 4.92 µM (inactive)
GI50 (786-0): 7.14 µM (inactive)
GI50 (A549): 12.2 µM (inactive)
GI50 (NCI/ADR-RES): 19 µM (inactive)
GI50 (K562): 5.24 µM (inactive)
GI50 (BT-549): 18.8 µM (inactive)
GI50 (DU-145): 13.3 µM (inactive)
GI50 (Malme-3M): 13 µM (inactive)
GI50 (COLO 205): 6.7 µM (inactive)
GI50 (SF-268): 10.2 µM (inactive)
GI50 (UACC-257): 14.8 µM (inactive)
GI50 (OVCAR-3): 19.3 µM (inactive)
GI50 (M14): 15.3 µM (inactive)
GI50 (IGROV-1): 15.4 µM (inactive)
GI50 (HCC 2998): 1.75 µM (inactive)
GI50 (ACHN): 2.81 µM (inactive)
GI50 (SK-OV-3): 14.1 µM (inactive)
GI50 (RXF 393): 11.5 µM (inactive)
GI50 (PC-3): 6.82 µM (inactive)
GI50 (HL-60): 9.89 µM (inactive)
GI50 (T47D): 23.9 µM (inactive)
GI50 (NCI-H522): 16.2 µM (inactive)
GI50 (MDA-N): 11.5 µM (inactive)
GI50 (MDA-MB-231): 17.2 µM (inactive)
GI50 (SF-295): 12.7 µM (inactive)
GI50 (CCRF-CEM): 5.06 µM (inactive)
GI50 (MOLT-4): 3.86 µM (inactive)
GI50 (SK-MEL-2): 16.1 µM (inactive)
GI50 (NCI-H23): 11.5 µM (inactive)
GI50 (KM12): 14.9 µM (inactive)
GI50 (OVCAR-5): 11.1 µM (inactive)
GI50 (NCI-H460): 3.42 µM (inactive)
GI50 (CAKI-1): 13.5 µM (inactive)
GI50 (TK-10): 21.5 µM (inactive)
GI50 (SR): 4.13 µM (inactive)

Cc1ccc(C2(N3CCOCC3)OC(C)(C)c3cccc4cccc2c34)cc1 (stereo not drawn)
GI50 (UO-31): 16.9 µM (inactive)
GI50 (MCF7): 16 µM (inactive)
GI50 (HCT-15): 17 µM
GI50 (UACC-62): 13.6 µM (inactive)
GI50 (U-251): 16.5 µM (inactive)
GI50 (HT-29): 15.5 µM (inactive)
GI50 (OVCAR-8): 16.9 µM (inactive)
GI50 (SK-MEL-5): 18.6 µM (inactive)
GI50 (HCT-116): 17.1 µM (inactive)
GI50 (SF-539): 17.9 µM (inactive)
GI50 (LOX IMVI): 16.5 µM (inactive)
GI50 (Hs-578T): 20.9 µM (inactive)
GI50 (HOP-92): 11.9 µM (inactive)
GI50 (RPMI-8226): 16.2 µM (inactive)
GI50 (SNB-75): 15.4 µM (inactive)
GI50 (OVCAR-4): 15.9 µM (inactive)
GI50 (EKVX): 13 µM (inactive)
GI50 (SNB-19): 17.6 µM (inactive)
GI50 (SN12C): 16.9 µM (inactive)
GI50 (HOP-62): 15.7 µM (inactive)
GI50 (786-0): 17.3 µM (inactive)
GI50 (A549): 12.9 µM (inactive)
GI50 (SW-620): 18.2 µM (inactive)
GI50 (NCI/ADR-RES): 15.7 µM (inactive)
GI50 (K562): 30.2 µM (inactive)
GI50 (BT-549): 17.3 µM (inactive)
GI50 (DU-145): 18 µM (inactive)
GI50 (Malme-3M): 16.8 µM (inactive)
GI50 (COLO 205): 15.9 µM (inactive)
GI50 (SF-268): 14.4 µM (inactive)
GI50 (UACC-257): 18 µM (inactive)
GI50 (OVCAR-3): 16 µM (inactive)
GI50 (M14): 16.8 µM (inactive)
GI50 (IGROV-1): 17.9 µM (inactive)
GI50 (ACHN): 16.3 µM (inactive)
GI50 (SK-OV-3): 16.7 µM (inactive)
GI50 (RXF 393): 15.3 µM (inactive)
GI50 (PC-3): 16.5 µM (inactive)
GI50 (HL-60): 34.9 µM (inactive)
GI50 (T47D): 21.7 µM (inactive)
GI50 (NCI-H522): 15.8 µM (inactive)
GI50 (MDA-N): 17.9 µM (inactive)
GI50 (SF-295): 16.9 µM (inactive)
GI50 (CCRF-CEM): 22.6 µM (inactive)
GI50 (MOLT-4): 41.5 µM (inactive)
GI50 (NCI-H226): 17.1 µM (inactive)
GI50 (SK-MEL-2): 15.6 µM (inactive)
GI50 (NCI-H23): 17.7 µM (inactive)
GI50 (KM12): 21.1 µM (inactive)
GI50 (MDA-MB-435): 16.9 µM (inactive)
GI50 (OVCAR-5): 15.8 µM (inactive)
GI50 (NCI-H460): 14.5 µM (inactive)
GI50 (CAKI-1): 18.2 µM (inactive)
GI50 (A498): 17.7 µM (inactive)
GI50 (TK-10): 17.3 µM (inactive)
GI50 (SR): 35.1 µM (inactive)
